IC50 data for 63 compounds are collected here from patent publication US9346761B2, “Arginine methyltransferase inhibitors and uses thereof” (Epizyme, Inc., priority 2013, dated 2016).

The target in one test is T1, Full-length human PRMT6 (Homo sapiens, UniProt Q96LA8).
T1 construct: Flag-PRMT6-His was eluted with 200 ug/ml FLAG peptide in the same buffer; made in house; host or cells: HEK 293F cells (BacMam virus, pFastBacMam)
Description: PRMT6 biochemical assay (3H-SAM Flashplate, peptide substrate). The method in brief: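 Read-out is 3H-methylated histone H4 (36-50) peptide bound to streptavidin Flashplates after a cold-SAM stop. Baculovirus-expressed Flag-PRMT6-His met compound for 30 min at room temperature before SAM and peptide; Bicine pH 7.6 buffer. IC50 fitted to % inhibition normalized to SAH (min) and DMSO (max).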

In test [1] the target is T2, Full-length human PRMT1 isoform 1 (Homo sapiens, UniProt Q99873).
T2 construct: GST-tagged PRMT1; made in house; host or cells: High Five insect cells (baculovirus, pFastBacI)
Description: PRMT1 biochemical assay (3H-SAM Flashplate, peptide substrate). The method in brief: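 Tritiated methyl transfer from 3H-SAM onto biotinylated peptide, captured on streptavidin Flashplates and counted. Baculovirus-expressed GST-PRMT1 and compound were preincubated 30 min at room temperature in Bicine buffer pH 7.6. Cold SAM at 300 uM final ended the reaction.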

T1 sequence (Q96LA8 with tags, fused parts or gaps): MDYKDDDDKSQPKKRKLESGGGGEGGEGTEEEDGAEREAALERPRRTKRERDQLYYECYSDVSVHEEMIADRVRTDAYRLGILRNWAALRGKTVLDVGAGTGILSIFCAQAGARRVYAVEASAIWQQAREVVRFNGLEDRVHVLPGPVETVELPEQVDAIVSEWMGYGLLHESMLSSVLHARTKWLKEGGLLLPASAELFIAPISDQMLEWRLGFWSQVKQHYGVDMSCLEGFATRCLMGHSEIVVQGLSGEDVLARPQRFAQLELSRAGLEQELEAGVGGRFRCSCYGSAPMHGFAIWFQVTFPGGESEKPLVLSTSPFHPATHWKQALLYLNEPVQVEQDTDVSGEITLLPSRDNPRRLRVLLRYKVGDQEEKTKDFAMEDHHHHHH
T2 sequence (Q99873 with tags, fused parts or gaps): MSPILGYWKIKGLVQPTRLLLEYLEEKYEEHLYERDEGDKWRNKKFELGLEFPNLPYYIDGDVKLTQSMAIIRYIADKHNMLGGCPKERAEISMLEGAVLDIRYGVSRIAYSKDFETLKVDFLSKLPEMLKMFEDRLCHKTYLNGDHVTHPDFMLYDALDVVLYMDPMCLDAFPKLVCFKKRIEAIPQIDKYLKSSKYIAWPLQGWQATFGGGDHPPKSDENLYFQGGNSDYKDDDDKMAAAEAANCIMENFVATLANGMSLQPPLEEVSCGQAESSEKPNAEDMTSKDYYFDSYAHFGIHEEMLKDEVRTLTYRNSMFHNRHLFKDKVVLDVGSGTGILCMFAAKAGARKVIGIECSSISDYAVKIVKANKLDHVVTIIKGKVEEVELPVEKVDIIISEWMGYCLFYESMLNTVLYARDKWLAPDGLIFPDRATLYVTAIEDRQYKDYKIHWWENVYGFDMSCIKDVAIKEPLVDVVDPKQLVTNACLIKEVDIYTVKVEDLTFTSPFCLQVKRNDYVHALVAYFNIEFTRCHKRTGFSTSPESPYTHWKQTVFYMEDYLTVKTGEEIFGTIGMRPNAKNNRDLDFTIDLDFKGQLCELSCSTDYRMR

In turn, `CN(CCN)Cc1cn[nH]c1-c1ccc(F)cc1` [Compound 1] displayed an IC50 against Full-length human PRMT6 of less than 100 nM.
On to `CNCCN(C)Cc1c[nH]nc1-c1ccc(F)cc1` [Compound 2, N^1-((3-(4-fluorophenyl)-1H-pyrazol-4-yl)methyl)-N^1,N^2-dimethylethane-1,2-diamine], for which the IC50 (in test [1]; at Full-length human PRMT6) was less than 100 nM throughout.
With `CN(CCN)Cc1cn(C)nc1-c1ccc(F)cc1` [Compound 3], the IC50 (in test [1]; at Full-length human PRMT6) was less than 100 nM each time.
Consider `CN(CCN)Cc1cnn(C)c1-c1ccc(F)cc1` [Compound 4], for which the IC50 was 101 to 1000 nM in test [1] and less than 100 nM against Full-length human PRMT6.
In turn, `CNCCN(C)Cc1cnn(CC2CCOCC2)c1-c1ccc(F)cc1` [Compound 12] registered an IC50 against Full-length human PRMT6 of 101 to 1000 nM.
Same read-out and setting: the result for `CNCCN(C)Cc1c[nH]nc1-c1cccc(N)c1` [Compound 32] reads less than 100 nM; that for `CNCCN(C)Cc1c[nH]nc1-c1ccc(CC#N)cc1` [Compound 34], less than 100 nM.
On the same count and under the same terms, for `CNCCN(C)Cc1c[nH]nc1-c1ccccc1O` [Compound 35] the value was 101 to 1000 nM; for `CNCCN(C)Cc1c[nH]nc1-c1ccccc1Oc1ccccc1` [Compound 36], 1010 to 3000 nM.
Still for that read-out and setting: for `CNCCN(C)Cc1c[nH]nc1-c1cccc(OC(F)(F)F)c1` [Compound 39] the value was less than 100 nM; for `CNCCN(C)Cc1c[nH]nc1-c1ccccc1NS(C)(=O)=O` [Compound 41], 3010 to 10000 nM.
For the compound `CNCCN(C)Cc1c[nH]nc1-c1cccc(NC(C)=O)c1` [Compound 42], the 50% inhibitory concentration (IC50) at Full-length human PRMT6 is less than 100 nM.
Turning to `CNCCN(C)Cc1c[nH]nc1-c1cccc(C(C)=O)c1` [Compound 44], at Full-length human PRMT6, the IC50 was less than 100 nM.
For the compound `CNCCN(C)Cc1c[nH]nc1-c1ccc(C(=O)c2ccccc2)cc1` [Compound 45], the IC50 (in test [1]; against Full-length human PRMT6) was less than 100 nM each time.
As for `CNCCN(C)Cc1c[nH]nc1-c1ccccc1-c1ccccc1` [Compound 46], the figures for the IC50 (in test [1]; at Full-length human PRMT6) were 1010 to 3000 nM and 3010 to 10000 nM, respectively.
At Full-length human PRMT6, `CNCCN(C)Cc1c[nH]nc1-c1ccc(-c2ccccc2)cc1` [Compound 47] registered a half-inhibitory concentration (IC50) of less than 100 nM.
The same measure, in the same setting: the result for `CNCCN(C)Cc1c[nH]nc1-c1ccccc1F` [Compound 48] reads less than 100 nM.
Consider `CNCCN(C)Cc1c[nH]nc1-c1ccc(F)cc1F` [Compound 49], for which the IC50 in test [1] was 101 to 1000 nM; against Full-length human PRMT6 it was less than 100 nM.
For `CNCCN(C)Cc1c[nH]nc1-c1cc(F)ccc1F` [Compound 50], in that order: 101 to 1000 nM and less than 100 nM.
On the same counts, the results for `CNCCN(C)Cc1c[nH]nc1-c1ccc(F)c(F)c1` [Compound 51] are less than 100 nM and less than 100 nM.
On the same counts, the results for `CNCCN(C)Cc1c[nH]nc1-c1ccc(OC)c(F)c1` [Compound 52] are less than 100 nM and less than 100 nM.
For `CNCCN(C)Cc1c[nH]nc1-c1cc(Cl)ccc1OC` [Compound 53], the half-inhibitory concentration (IC50) lay within 3010 to 10000 nM in test [1] and 101 to 1000 nM against Full-length human PRMT6.
For `CNCCN(C)Cc1c[nH]nc1-c1cccc(OC)c1OC` [Compound 54], in that order: 101 to 1000 nM and 101 to 1000 nM.
For `CNCCN(C)Cc1c[nH]nc1-c1ccc(OC)cc1OC` [Compound 55], in that order: 101 to 1000 nM and less than 100 nM.
`CNCCN(C)Cc1c[nH]nc1-c1c(OC)cccc1OC` [Compound 56]: the figures for the IC50 (in test [1]; against Full-length human PRMT6) were 3010 to 10000 nM and 1010 to 3000 nM, respectively.
Turning to `CNCCN(C)Cc1c[nH]nc1-c1cccc2ccccc12` [Compound 57], the half-maximal inhibitory concentration (IC50) (in test [1]; against Full-length human PRMT6) was less than 100 nM in each case.
For the compound `CNCCN(C)Cc1c[nH]nc1-c1ccc2ccccc2c1` [Compound 58], the 50% inhibitory concentration (IC50) (in test [1]; at Full-length human PRMT6) was less than 100 nM throughout.
As to `CNCCN(C)Cc1cn(CCC(O)CO)nc1-c1ccc(F)cc1` (stereo not shown) [Compound 59], the IC50 in test [1] is 3010 to 10000 nM; at Full-length human PRMT6, 101 to 1000 nM.
For `CCNCCN(C)Cc1c[nH]nc1-c1ccc(F)cc1` [Compound 60], in that order: 101 to 1000 nM and less than 100 nM.
Compound `COCCn1cc(CN(C)CCN(C)C)c(-c2ccc(F)cc2)n1` [Compound 61] showed an IC50 in test [1] of more than 10000 nM.
Turning to `CCN(CCN)Cc1c[nH]nc1-c1ccc(F)cc1` [Compound 62], the IC50 (in test [1]; against Full-length human PRMT6) was less than 100 nM each time.
Take `CCCN(CCN)Cc1c[nH]nc1-c1ccc(F)cc1` [Compound 63]: the half-inhibitory concentration (IC50) (in test [1]; on Full-length human PRMT6) was 1010 to 3000 nM in each case.
For `COCCn1ncc(CN(C)CCN(C)C)c1-c1ccc(F)cc1` [Compound 64], the values for the 50% inhibitory concentration (IC50) (in test [1]; against Full-length human PRMT6) were more than 10000 nM and 1010 to 3000 nM, respectively.
For `CN(CCN)Cc1cnn(CCO)c1-c1ccc(F)cc1` [Compound 65], in that order: 1010 to 3000 nM and 101 to 1000 nM.
For `CN(CCN)Cc1cn(CCO)nc1-c1ccc(F)cc1` [Compound 66], in that order: 1010 to 3000 nM and 1010 to 3000 nM.
For `CN(CCN)Cc1c[nH]nc1-c1ccc(C#N)cc1` [Compound 68], in that order: less than 100 nM and less than 100 nM.
In the case of `CN(CCN)Cc1n[nH]cc1-c1ccc(F)cc1` [Compound 69], the IC50 (in test [1]; at Full-length human PRMT6) was less than 100 nM each time.
For the compound `CN(CCN)Cc1c[nH]nc1-c1cccc(C#N)c1` [Compound 70], the half-inhibitory concentration (IC50) was 101 to 1000 nM in test [1] and less than 100 nM against Full-length human PRMT6.
For `CN(CCN)Cc1c[nH]nc1-c1cccc(F)c1` [Compound 71], in that order: less than 100 nM and less than 100 nM.
As to `CN(CCN)Cc1c[nH]nc1-c1ccccc1F` [Compound 72], the IC50 in test [1] was 101 to 1000 nM; at Full-length human PRMT6, less than 100 nM.
On to `CN(CCN)Cc1c[nH]nc1-c1ccccc1` [Compound 73], for which the IC50 was 101 to 1000 nM in test [1] and less than 100 nM against Full-length human PRMT6.
On the same counts, the results for `CN(CCN)Cc1c[nH]nc1-c1ccc(C(C)(C)C)cc1` [Compound 74] are less than 100 nM and less than 100 nM.
For `CC(C)N(CCN)Cc1c[nH]nc1-c1ccc(F)cc1` [Compound 75], in that order: 101 to 1000 nM and 1010 to 3000 nM.
On the same counts, the results for `CN(CCN)Cc1cn(CC(O)CO)nc1-c1ccc(F)cc1` (stereo not shown) [Compound 76] are 3010 to 10000 nM and 1010 to 3000 nM.
As to `CN(CCN)Cc1cn(C2COC2)nc1-c1ccc(F)cc1` [Compound 77], the IC50 (in test [1]; against Full-length human PRMT6) was 101 to 1000 nM in each case.
For the compound `NCCN(Cc1c[nH]nc1-c1ccc(F)cc1)C1CC1` [Compound 78], the 50% inhibitory concentration (IC50) was 101 to 1000 nM in test [1] and less than 100 nM at Full-length human PRMT6.
`CN(CCN)Cc1cn(CC2COC2)nc1-c1ccc(F)cc1` [Compound 79] came in with an IC50 in test [1] of more than 10000 nM.
Still for that read-out and setting: for `CN(CCN)Cc1cnn(CC2COC2)c1-c1ccc(F)cc1` [Compound 80] the value was more than 10000 nM.
Take `CN(CCN)Cc1cnn(C2COC2)c1-c1ccc(F)cc1` [Compound 81]: the IC50 (in test [1]; against Full-length human PRMT6) was 101 to 1000 nM throughout.
As for `CN(CCN)Cc1c[nH]nc1-c1ccc(N2CCNCC2)cc1` [Compound 82], the 50% inhibitory concentration (IC50) in test [1] was less than 100 nM; at Full-length human PRMT6 it was 101 to 1000 nM.
As to `CN(CCN)Cc1nn(C)cc1-c1ccc(C#N)cc1` [Compound 83], the IC50 (in test [1]; on Full-length human PRMT6) was less than 100 nM each time.
In turn, `CN(CCN)Cc1c(-c2ccc(C#N)cc2)cnn1C` [Compound 84] came in with a half-inhibitory concentration (IC50) in test [1] of more than 10000 nM.
For `CN(CCN)Cc1c[nH]nc1-c1ccc(C(F)(F)F)cc1C(F)(F)F` [Compound 85], the IC50 (in test [1]; on Full-length human PRMT6) was 101 to 1000 nM throughout.
For `CN(CCN)Cc1c[nH]nc1-c1ccc(Cl)cc1Cl` [Compound 86], the 50% inhibitory concentration (IC50) (in test [1]; against Full-length human PRMT6) was less than 100 nM throughout.
In the case of `COc1ccc(-c2n[nH]cc2CN(C)CCN)c(OC)c1` [Compound 87], the IC50 (in test [1]; on Full-length human PRMT6) was 101 to 1000 nM throughout.
With `Cc1ccc(-c2n[nH]cc2CN(C)CCN)c(C)c1` [Compound 88], the 50% inhibitory concentration (IC50) in test [1] was 101 to 1000 nM; against Full-length human PRMT6 it was less than 100 nM.
For `CN(CCN)Cc1c[nH]nc1-c1ccc(F)cc1Cl` [Compound 89], in that order: less than 100 nM and less than 100 nM.
On the same counts, the results for `Cc1ccc(-c2n[nH]cc2CN(C)CCN)c(Cl)c1` [Compound 90] are less than 100 nM and less than 100 nM.
For the compound `Cc1ccc(Cl)c(-c2n[nH]cc2CN(C)CCN)c1` [Compound 91], the half-maximal inhibitory concentration (IC50) (in test [1]; at Full-length human PRMT6) was 101 to 1000 nM in each case.
On to `CN(CCN)Cc1c[nH]nc1-c1ccc(C(F)(F)F)cc1` [Compound 92], for which the half-maximal inhibitory concentration (IC50) (in test [1]; against Full-length human PRMT6) was less than 100 nM each time.
In the case of `CN(CCN)Cc1c[nH]nc1-c1ccc(OC(F)(F)F)cc1` [Compound 93], the IC50 (in test [1]; against Full-length human PRMT6) was less than 100 nM each time.
`CN(CCN)Cc1c[nH]nc1-c1ccc(OC(F)F)cc1` [Compound 94]: the IC50 (in test [1]; against Full-length human PRMT6) was less than 100 nM throughout.
Take `CC(C)Oc1ccc(-c2n[nH]cc2CN(C)CCN)cc1Cl` [Compound 168]: the half-inhibitory concentration (IC50) against Full-length human PRMT6 was less than 100 nM.
